Measurements published in publication PMC10648852, “Molecular drivers of resistance to sulbactam-durlobactam in contemporary clinical isolates of Acinetobacter baumannii” (Antimicrobial Agents and Chemotherapy, 2023).
Read-outs that look alike come from different tables or passages of the source.

What was measured:
[1] = system: A. baumannii clinical isolates; test: microbe, parasite or virus in culture; format: cell-based; conditions: Acinetobacter baumannii
Summary of the method: (§1)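 SUL-DUR combines serially twofold-diluted sulbactam with durlobactam held at 4 µg/mL; MICs obtained by CLSI-standard broth microdilution and read against CLSI breakpoints when these exist.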

[2] = system: A. pittii clinical isolates; test: microbe, parasite or virus in culture; format: cell-based; conditions: Acinetobacter pittii
Summary of the method: as §1

A. baumannii PBP3 N392T = test: Acylation rate constant (kinact/Ki), fluorescence anisotropy competition with BOCILLIN
A. baumannii PBP3 Q488K = test: as above
[3] = system: ABC clinical isolates with SUL-DUR MIC > 4 µg/mL; test: microbe, parasite or virus in culture; format: cell-based, Acinetobacter baumannii-calcoaceticus complex
Summary of the method: as §1

A. baumannii PBP3 N377Y = test: Acylation rate constant (kinact/Ki), fluorescence anisotropy competition with BOCILLIN

## C[C@@H](O)[C@H]1C(=O)N2C(C(=O)O)=C(S[C@@H]3CN[C@H](C(=O)N(C)C)C3)[C@H](C)[C@H]12 [meropenem]
[1]; isolate ARC7014 (IHMA 2045328), Guatemala, IAI, 2019, read-out: MIC
  MIC: > 64 µg/mL
[1]; isolate ARC7015 (IHMA 2045327), Guatemala, UTI, 2019, read-out: MIC
  MIC: > 64 µg/mL
[1]; isolate ARC7016 (IHMA 2148441), Brazil, BSI, 2019, read-out: MIC
  MIC: > 64 µg/mL
[1]; isolate ARC7017 (IHMA 2148446), Brazil, BSI, 2019, read-out: MIC
  MIC: > 64 µg/mL
[1]; isolate ARC7018 (IHMA 2045454), Guatemala, IAI, 2019, read-out: MIC
  MIC: > 64 µg/mL
[1]; isolate ARC7019 (IHMA 2114463), Thailand, RTI, 2019, read-out: MIC
  MIC: > 64 µg/mL
[1]; isolate ARC7020 (IHMA 2045326), Guatemala, RTI, 2019, read-out: MIC
  MIC: > 64 µg/mL
[1]; isolate ARC7021 (IHMA 1966347), Guatemala, RTI, 2019, read-out: MIC
  MIC: > 64 µg/mL
[1]; isolate ARC7022 (IHMA 2045319), Guatemala, IAI, 2019, read-out: MIC
  MIC: > 64 µg/mL
[1]; isolate ARC7024 (IHMA 2059448), Turkey, RTI, 2019, read-out: MIC
  MIC: > 64 µg/mL
[1]; isolate ARC7025 (IHMA 2002121), Spain, RTI, 2019, read-out: MIC
  MIC: 64 µg/mL
[1]; isolate ARC7026 (IHMA 2104494), Guatemala, BSI, 2019, read-out: MIC
  MIC: > 64 µg/mL
[1]; isolate ARC7082 (IHMA 2160640), Belgium, BSI, 2020, read-out: MIC
  MIC: > 64 µg/mL
[1]; isolate ARC7083 (IHMA 2163687), United States, RTI, 2020, read-out: MIC
  MIC: 64 µg/mL
[1]; isolate ARC7084 (IHMA 2189596), Germany, RTI, 2020, read-out: MIC
  MIC: > 64 µg/mL
[1]; isolate ARC7085 (IHMA 2205747), Guatemala, IAI, 2020, read-out: MIC
  MIC: > 64 µg/mL
[1]; isolate ARC7086 (IHMA 2207563), Israel, RTI, 2020, read-out: MIC
  MIC: 32 µg/mL
[1]; isolate ARC7088 (IHMA 2215554), Turkey, BSI, 2020, read-out: MIC
  MIC: > 64 µg/mL
[1]; isolate ARC7089 (IHMA 2240345), Argentina, BSI, 2020, read-out: MIC
  MIC: 64 µg/mL
[1]; isolate ARC7090 (IHMA 2244410), Poland, RTI, 2020, read-out: MIC
  MIC: > 64 µg/mL
[1]; isolate ARC7091 (IHMA 2244564), Australia, RTI, 2020, read-out: MIC
  MIC: > 64 µg/mL
[1]; isolate ARC7092 (IHMA 2258772), United States, BSI, 2020, read-out: MIC
  MIC: > 64 µg/mL
[1]; isolate ARC7093 (IHMA 2258783), United States, RTI, 2020, read-out: MIC
  MIC: > 64 µg/mL
[1]; isolate ARC7094 (IHMA 2296423), Turkey, RTI, 2020, read-out: MIC
  MIC: 64 µg/mL
[1]; isolate ARC7095 (IHMA 2320843), Turkey, BSI, 2020, read-out: MIC
  MIC: 32 µg/mL
[1]; isolate ARC7156 (IHMA 2455450), Greece, RTI, 2021, read-out: MIC
  MIC: > 64 µg/mL
[1]; isolate ARC7158 (IHMA 2523738), Italy, BSI, 2021, read-out: MIC
  MIC: > 64 µg/mL
[1]; isolate ARC7159 (IHMA 2456229), Malaysia, RTI, 2021, read-out: MIC
  MIC: > 64 µg/mL
[1]; isolate ARC7160 (IHMA 2458626), Thailand, RTI, 2021, read-out: MIC
  MIC: > 64 µg/mL
[1]; isolate ARC7161 (IHMA 2429252), Ukraine, RTI, 2021, read-out: MIC
  MIC: 64 µg/mL
[1]; isolate ARC7162 (IHMA 2411847), United States, BSI, 2021, read-out: MIC
  MIC: > 64 µg/mL
[1]; isolate ARC7163 (IHMA 2477704), United States, BSI, 2021, read-out: MIC
  MIC: > 64 µg/mL
[2]; isolate ARC6949 (IHMA 1898982), Romania, RTI, 2018, read-out: MIC
  MIC: > 64 µg/mL
[2]; isolate ARC6951 (IHMA 1776233), Philippines, RTI, 2018, read-out: MIC
  MIC: > 64 µg/mL
[2]; isolate ARC6952 (IHMA 1899008), Romania, RTI, 2018, read-out: MIC
  MIC: > 64 µg/mL
[2]; isolate ARC7087 (IHMA 2212062), Colombia, BSI, 2020, read-out: MIC
  MIC: > 64 µg/mL
A. baumannii PBP3 N392T
  % WT: 164%
A. baumannii PBP3 N392T; average ± SD
  k inact/K i: 8,200 ± 200 ([2]) M^-1s^-1
A. baumannii PBP3 Q488K
  % WT: 78%
A. baumannii PBP3 Q488K; average ± SD
  k inact/K i: 3,900 ± 200 ([2]) M^-1s^-1
[3]; 64 non-clonal ABC isolates, 2023 CLSI breakpoints plus FDA breakpoint of 4 µg/mL for SUL-DUR
  %NS (% non-susceptibility): 100%
[3]; Acinetobacter
  MIC50: > 64 µg/mL
  MIC90: > 64 µg/mL
[3]; Acinetobacter, read-out: MIC Max
  MIC: > 64 µg/mL
[3]; Acinetobacter, read-out: MIC Min
  MIC: 32 µg/mL
A. baumannii PBP3 N377Y
  % WT: 74%
A. baumannii PBP3 N377Y; average ± SD
  k inact/K i: 3,700 ± 300 ([2]) M^-1s^-1
